Measured values: US10179771B2 (GALAPAGOS NV, priority 2014, dated 2019)
pIC50: −log10 of the molar value.

Legend:
[1] = target: T1, Recombinant human JAK1 catalytic domain (Homo sapiens, UniProt P23458); test: JAK1 inhibition assay (polyGT substrate / Ulight-JAK1 peptide assay); format: biochemical; conditions: Comparative Compounds (Table VI)
T1 construct: Recombinant human JAK1 (catalytic domain, amino acids 866-1154; catalog number PV4774); purchased Invitrogen PV4774
Experimental: Recombinant human JAK1 catalytic domain (amino acids 850-1154; catalog number 08-144) was purchased from Carna Biosciences. 10 ng of JAK1 is incubated with 12.5 μg polyGT substrate (Sigma catalog number P0275) in kinase reaction buffer (15 mM Tris-HCl pH 7.5, 1 mM DTT, 0.01% Tween-20, 10 mM MgCl2, 2 μM non-radioactive ATP, 0.25 ρCi ^33P-gamma-ATP (GE Healthcare, catalog number AH9968) final concentrations) with or without 5 μL containing test compound or vehicle (DMSO, 1% final concentration), in a total volume of 25 μL, in a polypropylene 96-well plate (Greiner, V-bottom). After 45 min at 30° C., reactions are stopped by adding of 25 μL/well of 150 mM phosphoric acid. All of the terminated kinase reaction is transferred to prewashed (75 mM phosphoric acid) 96 well filter plates (Perkin Elmer catalog number 6005177) using a cell harvester (Perkin Elmer). Plates are washed 6 times with 300 μL per well of a 75 mM phosphoric acid solution and the bottom of the plates is sealed. 40 μL/well of Microscint-20 is added, the top of the plates is sealed and readout is performed using the Topcount (Perkin Elmer). Kinase activity is calculated by subtracting counts per min (cpm) obtained in the presence of a positive control inhibitor (10 μM staurosporine) from cpm obtained in the presence of vehicle. The ability of a test compound to inhibit this activity is determined as:
(§1) [formula] • RFU test compound=RFU determined for sample with test compound present • RFU control=RFU determined for sample with positive control inhibitor • RFU vehicle=RFU determined in the presence of vehicle
(§2) Dose dilution series are prepared for the compounds enabling the testing of dose-response effects in the JAK1 assay and the calculation of the IC50 for each compound. Each compound is routinely tested at concentration of 20 μM followed by a 1/3 serial dilution, 8 points (20 μM-6.67 μM-2.22 μM-740 nM-247 nM-82 nM-27 nM-9 nM) in a final concentration of 1% DMSO. When potency of compound series increased, more dilutions are prepared and/or the top concentration was lowered (e.g. 5 μM, 1 μM).
Recombinant human JAK1 (catalytic domain, amino acids 866-1154; catalog number PV4774) was purchased from Invitrogen. 1 ng of JAK1 was incubated with 20 nM Ulight-JAK1 (tyr1023) peptide (Perkin Elmer catalog number TRF0121) in kinase reaction buffer (25 mM MOPS pH6.8, 0.01% Brij-35, 5 mM MgCl2, 2 mM DTT, 7 μM ATP) with or without 4 μL containing test compound or vehicle (DMSO, 1% final concentration), in a total volume of 20 μL, in a white 384 Opti plate (Perkin Elmer, catalog number 6007290). After 60 min at room temperature, reactions were stopped by adding 20 μL/well of detection mixture (1× detection buffer (Perkin Elmer, catalog number CR97-100C), 0.5 nM Europium-anti-phosphotyrosine (PT66) (Perkin Elmer, catalog number AD0068), 10 mM EDTA). Readout is performed using the Envision with excitation at 320 nm and measuring emission at 615 nm (Perkin Elmer). Kinase activity was calculated by subtracting relative fluorescence units (RFU) obtained in the presence of a positive control inhibitor (10 μM staurosporine) from RFU obtained in the presence of vehicle. The ability of a test compound to inhibit this activity was determined as: Percentage inhibition=((RFU determined for sample with test compound present−RFU determined for sample with positive control inhibitor) divided by (RFU determined in the presence of vehicle−RFU determined for sample with positive control inhibitor))*100.
(§3) Dose dilution series were prepared for the compounds enabling the testing of dose-response effects in the JAK1 assay and the calculation of the IC50 for the compound. Each compound is routinely tested at concentration of 20 μM followed by a 1/5 serial dilution, 10 points in a final concentration of 1% DMSO. When potency of compound series increases, more dilutions are prepared and/or the top concentration are lowered (e.g. 5 μM, 1 μM). […]

[2] = target: T2, Recombinant human JAK2 catalytic domain (Homo sapiens, UniProt O60674); test: JAK2 inhibition assay (polyGT substrate / Ulight-JAK1 peptide assay); format: biochemical; conditions: Comparative Compounds (Table VIII)
T2 construct: Recombinant human JAK2 catalytic domain (amino acids 808-1132; catalog number PV4210); GST; purchased Invitrogen PV4210
Experimental: Recombinant human JAK2 catalytic domain (amino acids 808-1132; catalog number PV4210) was purchased from Invitrogen. 0.025 mU of JAK2 is incubated with […] polyGT substrate (Sigma catalog number P0275) in kinase reaction buffer (5 mM MOPS pH 7.5, 9 mM MgAc, 0.3 mM EDTA, 0.06% Brij and 0.6 mM DTT, 1 μM non-radioactive ATP, 0.25 μCi ^33P-gamma-ATP (GE Healthcare, catalog number AH9968) final concentrations) with or without 5 μL containing test compound or vehicle (DMSO, 1% final concentration), in a total volume of 25 μL, in a polypropylene 96-well plate (Greiner, V-bottom). After 90 min at 30° C., reactions are stopped by adding of 25 μL/well of 150 mM phosphoric acid. All of the terminated kinase reaction is transferred to prewashed (75 mM phosphoric acid) 96 well filter plates (Perkin Elmer catalog number 6005177) using a cell harvester (Perkin Elmer). Plates are washed 6 times with 300 μL per well of a 75 mM phosphoric acid solution and the bottom of the plates is sealed. 40 μL/well of Microscint-20 is added, the top of the plates is sealed and readout is performed using the Topcount (Perkin Elmer). Kinase activity is calculated by subtracting counts per min (cpm) obtained in the presence of a positive control inhibitor (10 μM staurosporine) from cpm obtained in the presence of vehicle. The ability of a test compound to inhibit this activity is determined as:
as §1
as §2, with “JAK2” for “JAK1”, “is” for “was”
Recombinant human JAK2 (catalytic domain, amino acids 866-1154; catalog number PV4210) was purchased from Invitrogen. 0.0125 mU of JAK2 was incubated with 25 nM Ulight-JAK1 (tyr1023) peptide (Perkin Elmer catalog number TRF0121) in kinase reaction buffer (25 mM HEPES pH7.0, 0.01% Triton X-100, 7.5 mM MgCl2, 2 mM DTT, 7.5 μM ATP) with or without 4 μL containing test compound or vehicle (DMSO, 1% final concentration), in a total volume of 20 μL, in a white 384 Opti plate (Perkin Elmer, catalog number 6007290). After 60 min at room temperature, reactions were stopped by adding 20 μL/well of detection mixture (1× detection buffer (Perkin Elmer, catalog number CR97-100C), 0.5 nM Europium-anti-phosphotyrosine (PT66) (Perkin Elmer, catalog number AD0068), 10 mM EDTA). Readout is performed using the Envision with excitation at 320 nm and measuring emission at 615 nm (Perkin Elmer). Kinase activity was calculated by subtracting relative fluorescence units (RFU) obtained in the presence of a positive control inhibitor (10 μM staurosporine) from RFU obtained in the presence of vehicle. The ability of a test compound to inhibit this activity was determined as: Percentage inhibition=((RFU determined for sample with test compound present−RFU determined for sample with positive control inhibitor) divided by (RFU determined in the presence of vehicle−RFU determined for sample with positive control inhibitor))*100.
as §3, with “series are” for “series were”, “for compound” for “for the compounds”, “the JAK2” for “the JAK1”

T1 sequence (P23458 866-1154): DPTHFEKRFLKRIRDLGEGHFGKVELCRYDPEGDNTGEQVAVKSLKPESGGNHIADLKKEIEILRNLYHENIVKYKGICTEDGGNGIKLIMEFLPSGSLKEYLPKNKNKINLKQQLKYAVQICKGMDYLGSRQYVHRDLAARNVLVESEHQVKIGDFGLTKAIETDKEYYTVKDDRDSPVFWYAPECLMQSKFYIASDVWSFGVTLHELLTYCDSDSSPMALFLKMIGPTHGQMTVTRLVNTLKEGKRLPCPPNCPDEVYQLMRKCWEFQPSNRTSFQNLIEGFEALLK
T2 sequence (O60674 808-1132): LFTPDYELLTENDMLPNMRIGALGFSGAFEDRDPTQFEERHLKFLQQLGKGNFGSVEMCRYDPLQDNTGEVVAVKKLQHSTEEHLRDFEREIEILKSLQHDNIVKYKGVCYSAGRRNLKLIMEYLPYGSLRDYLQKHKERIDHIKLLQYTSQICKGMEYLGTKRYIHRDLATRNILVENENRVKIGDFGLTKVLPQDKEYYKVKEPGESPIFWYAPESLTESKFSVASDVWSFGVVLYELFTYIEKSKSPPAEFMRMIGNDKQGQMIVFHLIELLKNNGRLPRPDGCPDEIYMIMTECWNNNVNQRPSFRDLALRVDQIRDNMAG

## Cn1cnc2ccc(Nc3ccc(CC#N)cc3)cc21 [A, 2-[4-[(3-methylbenzimidazol-5-yl)amino]phenyl]acetonitrile, reference compound]
[1]
  pIC50: < 6.30
[2]
  pIC50: < 6.30

## Cn1cnc2ccc(Nc3ccc4c(c3)OCCO4)cc21 [B, reference compound]
[1]
  pIC50: < 6.30
[2]
  pIC50: < 6.30
